Assay results published in the Kinase Knowledgebase extract (Sharma et al. 2016).

Experiments:
PIK3CD (Human) = PIK3CD (Human) (UniProt O00329); assay: Assessment of PI3KCD Kinase Activity
PIK3CG (human) = PIK3CG (human) (UniProt P48736); assay: Assessment of PI3KCG Kinase Activity
PIK3CG (human), sequence (P48736 whole entry, looked up): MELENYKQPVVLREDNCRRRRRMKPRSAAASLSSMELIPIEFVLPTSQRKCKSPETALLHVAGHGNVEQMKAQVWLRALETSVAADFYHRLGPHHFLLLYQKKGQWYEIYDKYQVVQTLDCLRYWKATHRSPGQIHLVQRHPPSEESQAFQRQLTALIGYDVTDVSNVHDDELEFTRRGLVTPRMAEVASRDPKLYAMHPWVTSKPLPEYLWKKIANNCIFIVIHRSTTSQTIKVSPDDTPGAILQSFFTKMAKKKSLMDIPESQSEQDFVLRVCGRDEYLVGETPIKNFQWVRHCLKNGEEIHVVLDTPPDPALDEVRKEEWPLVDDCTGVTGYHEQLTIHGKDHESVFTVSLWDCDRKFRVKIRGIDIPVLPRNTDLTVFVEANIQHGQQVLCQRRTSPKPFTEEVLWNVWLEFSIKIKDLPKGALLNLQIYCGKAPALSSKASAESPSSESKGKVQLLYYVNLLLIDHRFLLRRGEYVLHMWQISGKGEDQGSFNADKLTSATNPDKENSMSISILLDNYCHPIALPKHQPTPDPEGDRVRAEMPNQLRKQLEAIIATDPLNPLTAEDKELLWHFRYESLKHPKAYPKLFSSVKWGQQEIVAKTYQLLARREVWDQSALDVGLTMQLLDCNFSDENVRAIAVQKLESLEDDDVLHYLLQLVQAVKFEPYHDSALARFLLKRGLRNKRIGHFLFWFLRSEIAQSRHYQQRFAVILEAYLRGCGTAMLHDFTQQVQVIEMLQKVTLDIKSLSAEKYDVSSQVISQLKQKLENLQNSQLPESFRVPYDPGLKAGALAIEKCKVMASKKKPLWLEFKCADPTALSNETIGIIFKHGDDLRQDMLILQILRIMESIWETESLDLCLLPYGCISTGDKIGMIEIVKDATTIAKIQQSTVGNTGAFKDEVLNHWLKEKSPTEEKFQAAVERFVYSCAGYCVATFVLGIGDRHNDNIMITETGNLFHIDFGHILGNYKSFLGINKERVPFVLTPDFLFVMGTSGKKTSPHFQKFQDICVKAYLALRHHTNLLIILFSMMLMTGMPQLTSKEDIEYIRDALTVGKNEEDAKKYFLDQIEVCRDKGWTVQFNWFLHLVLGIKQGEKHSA

PIK3CD (Human), sequence (O00329 whole entry, looked up): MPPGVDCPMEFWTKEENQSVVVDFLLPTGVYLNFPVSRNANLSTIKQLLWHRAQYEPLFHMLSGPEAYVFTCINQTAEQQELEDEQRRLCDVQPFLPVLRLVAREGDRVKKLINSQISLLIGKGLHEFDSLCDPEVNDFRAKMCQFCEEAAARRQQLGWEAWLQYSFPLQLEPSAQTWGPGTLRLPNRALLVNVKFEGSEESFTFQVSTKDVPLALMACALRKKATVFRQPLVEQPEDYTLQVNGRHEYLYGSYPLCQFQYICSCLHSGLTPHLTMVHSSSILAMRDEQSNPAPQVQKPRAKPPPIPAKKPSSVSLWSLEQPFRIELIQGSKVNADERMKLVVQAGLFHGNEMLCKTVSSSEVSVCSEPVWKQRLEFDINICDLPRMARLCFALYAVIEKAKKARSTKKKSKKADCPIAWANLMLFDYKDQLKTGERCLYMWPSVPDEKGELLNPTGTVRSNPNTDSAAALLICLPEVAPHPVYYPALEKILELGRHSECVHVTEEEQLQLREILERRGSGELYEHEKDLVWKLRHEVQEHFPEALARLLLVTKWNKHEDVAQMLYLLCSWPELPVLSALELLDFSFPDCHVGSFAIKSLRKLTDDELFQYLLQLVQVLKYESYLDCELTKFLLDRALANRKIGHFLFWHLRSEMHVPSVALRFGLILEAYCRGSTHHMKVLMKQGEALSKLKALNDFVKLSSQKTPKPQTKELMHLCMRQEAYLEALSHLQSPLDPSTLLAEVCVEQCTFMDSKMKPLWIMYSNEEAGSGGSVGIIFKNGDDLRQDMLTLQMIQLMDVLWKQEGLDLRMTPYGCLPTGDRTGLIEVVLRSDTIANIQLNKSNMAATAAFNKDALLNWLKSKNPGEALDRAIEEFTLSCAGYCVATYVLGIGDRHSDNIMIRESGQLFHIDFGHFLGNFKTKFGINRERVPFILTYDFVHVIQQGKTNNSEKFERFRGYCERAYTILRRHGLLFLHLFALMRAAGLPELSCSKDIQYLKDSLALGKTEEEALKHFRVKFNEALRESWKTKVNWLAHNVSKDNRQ

Row | Structure (SMILES) | IC50 (PIK3CD (Human)) [µM] | IC50 (PIK3CG (human)) [µM]
1 | Cc1ccccc1-n1c(Cn2nc(-c3ccc(O)c(F)c3)c3c(N)ncnc32)cc2cccc(C)c2c1=O | < 0.1 | < 0.1
2 | Cc1csc2nc(Cn3nc(I)c4c(N)ncnc43)n(-c3ccccc3C(C)C)c(=O)c12 | < 0.1 | < 0.1
3 | Cc1cccc2cc(Cn3nc(I)c4c(N)ncnc43)n(-c3ccccc3O)c(=O)c12 | < 0.1 | < 0.1
4 | Cc1cccnc1-n1c(Cn2nc(-c3ccc(F)c(O)c3)c3c(N)ncnc32)cc2cccc(C)c2c1=O | < 0.1 | < 0.1
5 | Cc1ccccc1-n1c(Cn2nc(-c3cc(O)cc(F)c3)c3c(N)ncnc32)nc2scc(C)c2c1=O | < 0.1 | < 0.1
6 | CC(=O)Nc1nc2ccc(-c3nn(Cc4cc5cccc(C)c5c(=O)n4-c4ccccc4C)c4ncnc(N)c34)cc2s1 |  | < 0.1
7 | Cc1ccccc1-n1c(Cn2nc(-c3ccc(F)c(O)c3)c3c(N)ncnc32)cc2ccccc2c1=O | < 0.1 | < 0.1
8 | Cc1ccccc1-n1c(Cn2nc(-c3cc(O)cc(F)c3)c3c(N)ncnc32)cc2nccc(C)c2c1=O | < 0.1 | < 0.1
9 | Cc1ccccc1-n1c(Cn2nc(C=C3SC(=O)NC3=O)c3c(N)ncnc32)cc2cccc(C)c2c1=O | < 0.1 | < 0.1
10 | Cc1cccc2cc(Cn3nc(-c4cc(O)cc(F)c4)c4c(N)ncnc43)n(-c3ccccc3O)c(=O)c12 | < 0.1 | < 0.1
11 | Cc1ccccc1-n1c(Cn2nc(-c3ccn[nH]3)c3c(N)ncnc32)cc2cccc(C)c2c1=O |  | < 0.1
12 | COc1ccc(-c2nn(Cc3cc4cccc(C)c4c(=O)n3-c3ccccc3C)c3ncnc(N)c23)cc1 |  | < 0.1
13 | Cc1ccccc1-n1c(Cn2nc(I)c3c(N)ncnc32)cc2ccccc2c1=O |  | < 0.1
14 | Cc1cccc2cc(Cn3nc(-c4cn[nH]c4)c4c(N)ncnc43)n(-c3ccccc3C(C)C)c(=O)c12 | < 0.1 | < 0.1
15 | Cc1cccc2cc(Cn3nc(I)c4c(N)ncnc43)n(-c3ccccc3C(C)C)c(=O)c12 | < 0.1 | < 0.1
16 | Cc1ccccc1-n1c(Cn2nc(-c3cc(O)cc(F)c3)c3c(N)ncnc32)cc2ccccc2c1=O | < 0.1 | < 0.1
17 | COc1ccc(-c2nn(Cc3cc4cccc(C)c4c(=O)n3-c3ccccc3C)c3ncnc(N)c23)cc1OC |  | < 0.1
18 | CCc1ccccc1-n1c(Cn2nc(-c3cccc(O)c3)c3c(N)ncnc32)nc2scc(C)c2c1=O | < 0.1 | < 0.1
19 | Cc1cccc2cc(Cn3nc(-c4cccc(O)c4)c4c(N)ncnc43)n(-c3ccccc3O)c(=O)c12 | < 0.1 | < 0.1
20 | CC(=O)Nc1nc2ccc(-c3nn(Cc4cc5cccc(C)c5c(=O)n4-c4ccccc4)c4ncnc(N)c34)cc2s1 | < 0.1 | < 0.1
21 | Cc1csc2nc(Cn3nc(-c4cccc(O)c4)c4c(N)ncnc43)n(-c3ccccc3C(C)C)c(=O)c12 | < 0.1 | < 0.1
22 | Cc1ccccc1-n1c(Cn2nc(-c3ccc4cc[nH]c4c3)c3c(N)ncnc32)nc2scc(C)c2c1=O | < 0.1 | < 0.1
23 | Cc1ccccc1-n1c(Cn2nc(C)c3c(N)ncnc32)nc2scc(C)c2c1=O | < 0.1 | < 0.1
24 | Cc1cccc2cc(Cn3nc(-c4ccc(O)c(Cl)c4)c4c(N)ncnc43)n(-c3ccccc3F)c(=O)c12 |  | < 0.1
25 | Cc1cccc2cc(Cn3nc(C=C4SC(=O)NC4=O)c4c(N)ncnc43)n(-c3ccccc3F)c(=O)c12 | < 0.1 | < 0.1

Row | Structure (SMILES) | IC50 (PIK3CD (Human)) [µM] | IC50 (PIK3CG (human)) [µM]
26 | Cc1cccc2cc(Cn3nc(-c4cc(O)cc(F)c4)c4c(N)ncnc43)n(C3CCCC3)c(=O)c12 | < 0.1 | < 0.1
27 | CCc1ccccc1-n1c(Cn2nc(-c3cccc(O)c3)c3c(N)ncnc32)cc2cccc(C)c2c1=O | < 0.1 | < 0.1
28 | Cc1csc2nc(Cn3nc(C#C[C@@H](C)O)c4c(N)ncnc43)n(-c3ccccc3F)c(=O)c12 | < 0.1 | < 0.1
29 | COc1cc(-c2nn(Cc3cc4cccc(C)c4c(=O)n3-c3ccccc3C)c3ncnc(N)c23)ccc1Cl |  | < 0.1
30 | Cc1csc2nc(Cn3nc(-c4cccc(O)c4)c4c(N)ncnc43)n(-c3ccccc3C(F)(F)F)c(=O)c12 | < 0.1 | < 0.1
31 | Cc1ccccc1-n1c(Cn2nc(C=CC(N)=O)c3c(N)ncnc32)cc2cccc(C)c2c1=O | < 0.1 | < 0.1
32 | CCc1ccccc1-n1c(Cn2nc(Br)c3c(N)ncnc32)nc2scc(C)c2c1=O | < 0.1 | < 0.1
33 | Cc1ccccc1-n1c(Cn2nc(-c3ccc(O)cc3)c3c(N)ncnc32)cc2cccc(C)c2c1=O |  | < 0.1
34 | Cc1ccccc1-n1c(Cn2nc(-c3ccc4ncnc(N)c4c3)c3c(N)ncnc32)cc2cccc(C)c2c1=O | < 0.1 | < 0.1
35 | Cc1cccc2cc(Cn3nc(-c4cc(O)cc(F)c4)c4c(N)ncnc43)n(-c3ccccc3F)c(=O)c12 | < 0.1 | < 0.1
36 | CCc1ccccc1-n1c(Cn2nc(-c3cc(O)cc(F)c3)c3c(N)ncnc32)nc2scc(C)c2c1=O | < 0.1 | < 0.1
37 | Cc1ccccc1-n1c(Cn2nc(-c3ccc(O)c(Cl)c3)c3c(N)ncnc32)cc2cccc(C)c2c1=O | < 0.1 | < 0.1
38 | Cc1cccc2cc(Cn3nc(-c4ccc(Cl)c(O)c4)c4c(N)ncnc43)n(-c3ccccc3F)c(=O)c12 | < 0.1 | < 0.1
39 | Cc1ccccc1-n1c(Cn2nc(Br)c3c(N)ncnc32)cc2cccc(C)c2c1=O | < 0.1 | < 0.1
40 | CCc1ccccc1-n1c(Cn2nc(-c3cn[nH]c3)c3c(N)ncnc32)cc2cccc(C)c2c1=O | < 0.1 | < 0.1
41 | Cc1cccc2cc(Cn3nc(-c4ccc(F)c(O)c4)c4c(N)ncnc43)n(C3CCCC3)c(=O)c12 | < 0.1 | < 0.1
42 | Cc1ccccc1-n1c(Cn2nc(-c3cccc(O)c3)c3c(N)ncnc32)cc2cccc(C)c2c1=O | < 0.1 | < 0.1
43 | Cc1ccccc1-n1c(Cn2nc(C3=CCC4OC(N)=NC4=C3)c3c(N)ncnc32)cc2cccc(C)c2c1=O (configuration not stated) | < 0.1 | < 0.1
44 | Cc1cccc2cc(Cn3nc(-c4cc(O)cc(F)c4)c4c(N)ncnc43)n(-c3ccccc3C(C)C)c(=O)c12 | < 0.1 | < 0.1
45 | Cc1cccc2cc(Cn3nc(-c4cccc(O)c4)c4c(N)ncnc43)n(-c3ccccc3C(C)C)c(=O)c12 | < 0.1 | < 0.1
46 | Cc1ccccc1-n1c(Cn2nc(-c3ccc(F)c(O)c3)c3c(N)ncnc32)nc2scc(C)c2c1=O | < 0.1 | < 0.1
47 | Cc1cccnc1-n1c(Cn2nc(-c3cc(O)cc(F)c3)c3c(N)ncnc32)cc2cccc(C)c2c1=O | < 0.1 | < 0.1
48 | CC(=O)Nc1nc2ccc(-c3nn(Cc4cc5cccc(C)c5c(=O)n4-c4cccc(F)c4)c4ncnc(N)c34)cc2s1 | < 0.1 | < 0.1
49 | Cc1ccccc1-n1c(Cn2nc(-c3ccc(F)c(O)c3)c3c(N)ncnc32)cc2cccc(C)c2c1=O | < 0.1 | < 0.1
50 | Cc1cccc2cc(Cn3nc(I)c4c(N)ncnc43)n(C3CC3)c(=O)c12 | < 0.1 | < 0.1

Row | Structure (SMILES) | IC50 (PIK3CD (Human)) [µM] | IC50 (PIK3CG (human)) [µM]
51 | Cc1ccccc1-n1c(Cn2nc(-c3ccc(F)c(O)c3)c3c(N)ncnc32)cc2cccc(F)c2c1=O | < 0.1 | < 0.1
52 | Cc1ccccc1-n1c(Cn2nc(-c3cccc(O)c3)c3c(N)ncnc32)cc2cccc(F)c2c1=O | < 0.1 | < 0.1
53 | Cc1cccc2cc(Cn3nc(-c4cccc(O)c4)c4c(N)ncnc43)n(-c3ccccc3Cl)c(=O)c12 | < 0.1 | < 0.1
54 | CCc1ccccc1-n1c(Cn2nc(-c3cc(O)cc(F)c3)c3c(N)ncnc32)cc2cccc(C)c2c1=O | < 0.1 | < 0.1
55 | Cc1ccccc1-n1c(Cn2nc(-c3ccc(Cl)c(O)c3)c3c(N)ncnc32)cc2ccccc2c1=O | < 0.1 | < 0.1
56 | Cc1cccnc1-n1c(Cn2nc(-c3ccc(Cl)c(O)c3)c3c(N)ncnc32)cc2cccc(C)c2c1=O | < 0.1 | < 0.1
57 | Cc1cccc2cc(Cn3nc(-c4cc(O)cc(F)c4)c4c(N)ncnc43)n(-c3ccccc3)c(=O)c12 | < 0.1 | < 0.1
58 | Cc1csc2nc(Cn3nc(-c4ccc(O)c(F)c4)c4c(N)ncnc43)n(-c3ccccc3F)c(=O)c12 |  | < 0.1
59 | Cc1cccc2cc(Cn3nc(-c4cccc(O)c4)c4c(N)ncnc43)n(-c3ccccc3)c(=O)c12 | < 0.1 | < 0.1
60 | Cc1cccc2cc(Cn3nc(I)c4c(N)ncnc43)n(C3CCCCC3)c(=O)c12 |  | < 0.1
61 | Cc1cccc2cc(Cn3nc(C#C[C@@H](C)O)c4c(N)ncnc43)n(-c3ccccc3C(C)C)c(=O)c12 | < 0.1 | < 0.1
62 | Cc1csc2nc(Cn3nc(-c4cc(O)cc(F)c4)c4c(N)ncnc43)n(-c3ccccc3F)c(=O)c12 | < 0.1 | < 0.1
63 | Cc1cccc2cc(Cn3nc(-c4ccc(O)c(F)c4)c4c(N)ncnc43)n(-c3ccccc3F)c(=O)c12 |  | < 0.1
64 | Cc1cccc2cc(C(C)Nc3ncnc4[nH]cnc34)n(-c3ccccc3F)c(=O)c12 (configuration not stated) | < 0.1 | < 0.1
65 | Cc1csc2nc(Cn3nc(Br)c4c(N)ncnc43)n(-c3ccccc3F)c(=O)c12 | < 0.1 | 
66 | Cc1csc2nc(Cn3nc(I)c4c(N)ncnc43)n(-c3ccccc3F)c(=O)c12 | < 0.1 | 
67 | COc1ccccc1-n1c(Cn2nc(C#C[C@@H](C)O)c3c(N)ncnc32)nc2scc(C)c2c1=O | < 0.1 | 
68 | Cc1cccc2cc(Cn3nc(-c4cc(O)cc(F)c4)c4c(N)ncnc43)n(C3CCOCC3)c(=O)c12 | < 0.1 | 
69 | Cc1cccnc1-n1c(Cn2nc(-c3cc(O)cc(F)c3)c3c(N)ncnc32)cc2ccccc2c1=O | < 0.1 | 
70 | Cc1ccccc1-n1c(Cn2nc(-c3cc(O)cc(F)c3)c3c(N)ncnc32)cc2ncccc2c1=O | < 0.1 | 
71 | Cc1ccccc1-n1c(Cn2nc(C#C[C@@H](C)O)c3c(N)ncnc32)cc2nccc(C)c2c1=O | < 0.1 | 
72 | Cc1cccc2cc(Cn3nc(I)c4c(N)ncnc43)n(-c3ccccc3Cl)c(=O)c12 | < 0.1 | 
73 | Cc1cccc2cc(Cn3nc(C#C[C@@H](C)O)c4c(N)ncnc43)n(-c3ccccc3Cl)c(=O)c12 | < 0.1 | 
74 | COc1ccccc1-n1c(Cn2nc(Cl)c3c(N)ncnc32)nc2scc(C)c2c1=O | < 0.1 | 
